Holding throughout (test): NCI-60 cell line screen, 48 h
Test [1] has as its system BT-549 breast.
Test [2] concerns UACC-257 melanoma.
Test [3] relates to SK-MEL-2 melanoma.
The subject of test [4] is CAKI-1 renal.
Test [5] has as its system SN12C renal.
Test [6] deals with T-47D breast.
For test [7], the system named is KM12 colon.
Test [8] concerns IGROV1 ovarian.
In test [9] the test system is UO-31 renal.
Test [10] relates to COLO 205 colon.

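Protocol summary: plate cells (96-well), add compound at 5 concentrations, incubate 48 h, interpolate endpoints linearly. GI50: concentration for 50% inhibition of growth. TGI: concentration producing complete growth inhibition.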

`CCOC(=O)/C(=N\OC)C(O)C(F)(F)F` (configuration not stated): the TGI in [1], in test [2], in [3], in [4], in test [5] and in test [6] was above 100 µM throughout. The TGI in test [7], in test [8], in [9] and in test [10] was above 100 µM throughout.
Take `COc1cc2c(cc1OCCCCCOc1cc3c(cc1OC)C(=O)N1CC(F)C[C@H]1C=N3)N=C[C@@H]1CC(F)CN1C2=O` (some centres not stated): the GI50 in test [1] is 0.0939 µM; in [2], 0.165 µM; in [3], 0.279 µM; in test [4], below 0.01 µM; in [5] it was below 0.0427 µM; in [6] it was 0.265 µM. Moreover, the GI50 was 0.369 µM in test [7], 0.0599 µM in test [8], 0.315 µM in test [9] and 0.191 µM in [10]. Moreover, the TGI in test [1] was 0.721 µM; in test [2], 0.444 µM; in test [4] it was 0.411 µM; in test [5], 0.952 µM; in [6], 14 µM; in [7] it was 1.15 µM. The TGI in test [9] was found to be 4.64 µM; in [10], 0.465 µM.
With `O=c1c2ccccc2c(Br)c(Br)c2ccccc12`, the GI50 in test [1] was 19 µM; in [2] it was 7.48 µM; in test [3] it was 13.3 µM; in test [4] it was 1.78 µM; in test [5], 15.8 µM; in test [6] it was 4.43 µM. Further, the GI50 in [7] is 12.5 µM; in [8] it was 2.37 µM; in test [9], 1.9 µM; in test [10], 8.61 µM. Besides, the TGI turned out to be 34.4 µM in [1]; 43.6 µM in test [2]; 32.5 µM in [3]; 4.39 µM in test [4]; 32.8 µM in test [5]; 32.3 µM in test [6]. In addition, the TGI in test [7] is 29.6 µM; in [8], 5.37 µM; in test [9] it was 3.44 µM; in test [10], 23.7 µM.
As to `c1ccc2c(c1)sc1c3cnccc3ccc21`, the TGI in [1], in test [2], in test [3], in test [4], in [5] and in test [6] was above 100 µM in each case. Also, the TGI in test [7], in [8], in test [9] and in [10] was above 100 µM throughout.
Regarding `CCCc1cc(O)c2c3c(c(=O)oc2c1)CN(C)CC3`, the GI50 in test [1] is 48.1 µM; in test [2] it was 26.1 µM; in test [3], above 100 µM; in test [4], above 100 µM; in test [5], above 100 µM; in [6], 37.8 µM. Further, the GI50 in test [7] is 87.3 µM; in [8] it was above 100 µM; in test [9], 35.8 µM; in test [10], 40.6 µM. Further, the TGI in [1], in test [2], in [3], in [4], in test [5] and in test [6] was above 100 µM throughout. For the same compound, the TGI in test [7], in test [8], in test [9] and in test [10] was above 100 µM throughout.
On to `CCOC(=O)c1sc2ncn(Cc3cccc(Br)c3)c(=O)c2c1C`, for which the GI50 in [1] is 28.7 µM; in test [2], 21.1 µM; in test [3], 17.7 µM; in test [4], 24.6 µM; in test [5], 11.7 µM; in [6], 36.5 µM. The GI50 in [7] is 28.9 µM; in test [8] it was 0.172 µM; in [9] it was 34.2 µM; in [10] it was 61.5 µM. Besides, the TGI in test [1] is above 100 µM; in test [2], 84.4 µM; in test [3], 81 µM; in test [4], 97.5 µM; in test [5], 47.3 µM; in test [6], above 100 µM. For the same compound, the TGI in [7], in [8], in test [9] and in [10] was above 100 µM in each case.
As to `CCOc1ccc(-c2cnnn2-c2nonc2-n2cccc2)cc1`, the GI50 in test [1] was 0.363 µM; in test [2] it was 0.449 µM; in [3], 0.308 µM; in [4], 0.352 µM; in test [5] it was 0.557 µM; in test [6], 0.466 µM. Also, the GI50 in test [7] was 0.125 µM; in [8] it was 0.581 µM; in test [9], 0.376 µM; in test [10], 0.247 µM. For the same compound, the TGI in test [2] is above 69 µM; in [3] it was above 100 µM; in [4], above 100 µM; in test [5], above 100 µM; in test [6], above 100 µM; in [7] it was 10.1 µM. Besides, the figures for the TGI in test [8], in test [9] and in [10] were above 100 µM, above 88.8 µM and 0.808 µM, respectively.

For the origin of these results see PubChem BioAssay (NCI).
